# Active and inactive are the calls of the source. The rule behind the calls is not given here.
# Key:
# [1] = system: Calf thymus DNA; assay: Binding affinity to calf thymus DNA assessed as bathochromic shift at 20 uM by UV/visible spectrophotometry; assay type: nucleic-acid assay; details: Bos taurus
# [2] = system: Calf thymus DNA; assay: Binding affinity to calf thymus DNA assessed as hypochromic shift at 20 uM by UV/visible spectrophotometry; assay type: nucleic-acid assay; details: Bos taurus
# [3] = Binding affinity to DNA (unknown origin) at 1 to 10 uM after 15 mins by DNA footprinting assay
# [4] = species: Homo sapiens; assay: Inhibition of human DNA topoisomerase 2 assessed as inhibition of DNA cleavage
# [5] = molecular target: T1, DNA topoisomerase 1 (Homo sapiens) (UniProt P11387); assay: Inhibition of human DNA topoisomerase 1 assessed as inhibition of DNA cleavage
# T1 sequence (whole entry): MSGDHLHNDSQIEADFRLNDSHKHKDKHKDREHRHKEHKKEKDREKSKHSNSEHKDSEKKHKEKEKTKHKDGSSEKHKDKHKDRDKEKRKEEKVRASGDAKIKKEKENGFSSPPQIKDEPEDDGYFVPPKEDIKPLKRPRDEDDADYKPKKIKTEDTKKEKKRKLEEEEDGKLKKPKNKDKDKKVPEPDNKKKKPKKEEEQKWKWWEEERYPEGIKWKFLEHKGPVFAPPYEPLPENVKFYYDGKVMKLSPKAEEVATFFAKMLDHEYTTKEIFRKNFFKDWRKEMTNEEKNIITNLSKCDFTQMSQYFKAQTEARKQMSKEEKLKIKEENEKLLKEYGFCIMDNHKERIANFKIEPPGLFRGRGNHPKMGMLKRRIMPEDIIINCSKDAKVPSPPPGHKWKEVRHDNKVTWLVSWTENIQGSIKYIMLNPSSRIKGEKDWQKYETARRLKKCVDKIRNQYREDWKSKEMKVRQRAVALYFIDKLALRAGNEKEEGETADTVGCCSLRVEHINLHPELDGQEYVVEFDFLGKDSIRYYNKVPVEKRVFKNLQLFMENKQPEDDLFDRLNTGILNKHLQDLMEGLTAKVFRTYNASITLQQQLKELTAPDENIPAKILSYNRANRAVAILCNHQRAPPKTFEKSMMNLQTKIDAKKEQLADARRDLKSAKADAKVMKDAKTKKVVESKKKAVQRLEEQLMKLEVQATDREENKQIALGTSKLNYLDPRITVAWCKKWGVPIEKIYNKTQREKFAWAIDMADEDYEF
# [6] = system: Escherichia coli; assay: Binding affinity to Escherichia coli pUC19 plasmid assessed as nicked DNA at 0.1 to 5 uM by ethidium bromide staining-based agarose gel electrophoresis
# [7] = system: Escherichia coli; assay: Binding affinity to Escherichia coli pUC19 plasmid assessed as induction of topoisomerase1-mediated DNA relaxation at 1 uM incubated for 45 mins prior to topoisomerase1 addition by agarose gel electrophoresis
# [8] = system: Calf thymus DNA; assay: Binding affinity to calf thymus DNA assessed as DNA intercalation by circular dichroism analysis; assay type: nucleic-acid assay; details: Bos taurus
# [9] = system: Calf thymus DNA; assay: Binding affinity to calf thymus DNA assessed as change in melting temperature at 0.5 drug/DNA ratio by spectrophotometry; assay type: nucleic-acid assay; details: Bos taurus
# [10] = Drug uptake in human H460 cell nucleoli at 10 uM after 2 hrs by fluorescence microscopy; assay type: ADME, cell-based; details: h460, 2 h
# [11] = Drug uptake in human H460 cell endoplasmic reticulum at 10 uM after 2 hrs by fluorescence microscopy; assay type: ADME, cell-based; details: h460, 2 h
# [12] = system: HCT-116; assay: Cell cycle arrest in human HCT116 cells assessed as accumulation at subG1 phase at 5 uM after 24 hrs by propidium iodide staining-based FACS analysis; assay type: functional
# [13] = system: HCT-116; assay: Cell cycle arrest in human HCT116 cells assessed as accumulation at subG1 phase after 24 hrs by propidium iodide staining-based FACS analysis; assay type: functional
# [14] = system: HCT-116; assay: Cell cycle arrest in human HCT116 cells assessed as accumulation at G2/M phase at 1 uM after 48 hrs by propidium iodide staining-based FACS analysis (reference value: 28 +/- 3 %); assay type: functional
# [15] = system: HCT-116; assay: Cell cycle arrest in human HCT116 cells assessed as accumulation at G2/M phase at 0.1 uM after 48 hrs by propidium iodide staining-based FACS analysis (reference value: 28 +/- 3 %); assay type: functional
# [16] = system: HCT-116; assay: Cell cycle arrest in human HCT116 cells assessed as accumulation at G2/M phase at 1 uM after 24 hrs by propidium iodide staining-based FACS analysis (reference value: 29 +/- 8 %); assay type: functional
# [17] = system: HCT-116; assay: Cell cycle arrest in human HCT116 cells assessed as accumulation at G2/M phase at 0.1 uM after 24 hrs by propidium iodide staining-based FACS analysis (reference value: 29 +/- 8 %); assay type: functional
# [18] = system: HCT-116; assay: Cell cycle arrest in human HCT116 cells assessed as accumulation at S phase at 1 uM after 48 hrs by propidium iodide staining-based FACS analysis (reference value: 12+/- 5 %); assay type: functional
# [19] = system: HCT-116; assay: Cell cycle arrest in human HCT116 cells assessed as accumulation at S phase at 0.1 uM after 48 hrs by propidium iodide staining-based FACS analysis (reference value: 12+/- 5 %); assay type: functional
# [20] = system: HCT-116; assay: Cell cycle arrest in human HCT116 cells assessed as accumulation at S phase at 1 uM after 24 hrs by propidium iodide staining-based FACS analysis (reference value: 48 +/- 6 %); assay type: functional
# [21] = system: HCT-116; assay: Cell cycle arrest in human HCT116 cells assessed as accumulation at S phase at 0.1 uM after 24 hrs by propidium iodide staining-based FACS analysis (reference value: 48 +/- 6 %); assay type: functional
# [22] = system: HCT-116; assay: Cell cycle arrest in human HCT116 cells assessed as accumulation at G1 phase at 1 uM after 48 hrs by propidium iodide staining-based FACS analysis (reference value: 60 +/- 2 %); assay type: functional
# [23] = system: HCT-116; assay: Cell cycle arrest in human HCT116 cells assessed as accumulation at G1 phase at 0.1 uM after 48 hrs by propidium iodide staining-based FACS analysis (reference value: 60 +/- 2 %); assay type: functional
# [24] = system: HCT-116; assay: Cell cycle arrest in human HCT116 cells assessed as accumulation at G1 phase at 1 uM after 24 hrs by propidium iodide staining-based FACS analysis (reference value: 23 +/- 2 %); assay type: functional
# [25] = system: HCT-116; assay: Cell cycle arrest in human HCT116 cells assessed as accumulation at G1 phase at 0.1 uM after 24 hrs by propidium iodide staining-based FACS analysis (reference value: 23 +/- 2 %); assay type: functional
# [26] = system: HCT-116; assay: Cell cycle arrest in human HCT116 cells assessed as accumulation at subG1 phase at 1 uM after 48 hrs by propidium iodide staining-based FACS analysis (reference value: 5 +/- 2 %); assay type: functional
# [27] = system: HCT-116; assay: Cell cycle arrest in human HCT116 cells assessed as accumulation at subG1 phase at 0.1 uM after 48 hrs by propidium iodide staining-based FACS analysis (reference value: 5 +/- 2 %); assay type: functional
# [28] = system: HCT-116; assay: Cell cycle arrest in human HCT116 cells assessed as accumulation at subG1 phase at 1 uM after 24 hrs by propidium iodide staining-based FACS analysis (reference value: 2 +/- 0.1 %); assay type: functional
# [29] = system: HCT-116; assay: Cell cycle arrest in human HCT116 cells assessed as accumulation at subG1 phase at 0.1 uM after 24 hrs by propidium iodide staining-based FACS analysis (reference value: 2 +/- 0.1 %); assay type: functional
# [30] = system: MCF7; assay: Cytotoxicity against human MCF7 cells after 72 hrs by MTT assay; assay type: functional, cell-based; details: MCF7, 72 h
# [31] = Cytotoxicity against human H460 cells after 72 hrs by MTT assay; assay type: functional, cell-based; details: NCI-H460, 72 h
# [32] = system: HCT-116; assay: Cytotoxicity against human HCT116 cells after 72 hrs by MTT assay; assay type: functional, cell-based; details: HCT-116, 72 h
# [33] = system: DNA; assay: Induction of DNA damage in plasmid DNA in E. coli S30 cell-free system assessed as inhibition of EGFP translation at 50 uM after 1 hr by fluorescence assay
smiles,measurement,setting,value
N#Cc1cc2ccc(N3CCNCC3)cc2n2c1nc1ccccc12,Activity,[1],Active
same,Activity,[2],Active
same,Activity,[3],Active
same,Activity,[4],inactive
same,Activity,[5],inactive
same,Activity,[6],Active
same,Activity,[7],Active
same,Activity,[8],Dose-dependent effect
same,ΔTm,[9],17.3 °C
same,Drug uptake,[10],Active
same,Drug uptake,[11],Active
same,Activity,[12],40%
same,Activity,[13],Dose-dependent effect
same,Activity,[14],69%
same,Activity,[15],30%
same,Activity,[16],85%
same,Activity,[17],80%
same,Activity,[18],1%
same,Activity,[19],11%
same,Activity,[20],0%
same,Activity,[21],1%
same,Activity,[22],30%
same,Activity,[23],59%
same,Activity,[24],15%
same,Activity,[25],19%
same,Activity,[26],12%
same,Activity,[27],11%
same,Activity,[28],12%
same,Activity,[29],2%
same,IC50,[30],0.2 µM
same,IC50,[31],0.2 µM
same,IC50,[32],0.06 µM
same,inhibition at 50 µM,[33],38%
